As usually defined, the IC50 is the concentration that gives 50% inhibition. Low readings indicate inhibition by little substance, high ones a need for much substance.

Experimental findings from BindingDB's records for doi:10.1016/j.bmc.2011.12.062 (The Ohio State University College of Medicine, 2012) are described below.

This assay in a line: Displacement of thioflavin T from insulin amyloid fibrils by thioflavin-T fluorescent dye assay.

Compound `CN(C)c1ccc(/C=C/c2sc3ccccc3[n+]2Cc2cccc(Oc3ccccc3)c2)cc1` showed an IC50 of 180 nM. Compound `CN(C)c1ccc(/C=C/c2sc3ccccc3[n+]2Cc2ccccc2-c2ccccc2)cc1` returned an IC50 of 80 nM. For the compound `CN(C)c1ccc(/C=C/c2sc3c(Cc4ccccc4)c(Cc4ccccc4)ccc3[n+]2C)cc1`, the IC50 was found to be 41 nM. In the case of `CN(C)c1ccc(/N=N/c2sc3ccccc3[n+]2C)cc1`, the IC50 was determined as 60 nM. `CN(C)c1ccc(/N=N/c2nc3ccccc3s2)cc1` yielded an IC50 of 1200 nM. The compound `CCCCCCC[n+]1c(/C=C/c2ccc(N(C)C)cc2)sc2ccccc21` returned an IC50 of 83 nM. Take `CN(C)c1ccc(/C=C/c2sc3ccccc3[n+]2C/C=C/c2ccccc2)cc1`: the IC50 was found to be 80 nM.

In the case of `CN(C)c1ccc(/C=C/c2sc3ccccc3[n+]2Cc2ccc3ccccc3c2)cc1`, the IC50 was determined as 13 nM.

Compound `CN(C)c1ccc(/C=C/c2sc3ccccc3[n+]2CCCCCOc2ccccc2)cc1` showed an IC50 of 80 nM.

Take `CN(C)c1ccc(/C=C/c2sc3cc([N+](=O)[O-])ccc3[n+]2C)cc1`: the IC50 worked out at 12 nM.

In turn, `CN(C)c1ccc(/C=C/c2sc3ccccc3[n+]2Cc2ccccc2)cc1` registered an IC50 of 12 nM.

In turn, `CN(C)c1ccc(/C=C/c2sc3ccccc3[n+]2Cc2ccc(F)cc2)cc1` had an IC50 of 42 nM.

Compound `CN(C)c1ccc(/N=N/c2nc3ccc(Cl)cc3s2)cc1` registered an IC50 of 1300 nM. The compound `CCCCCCC[n+]1c(/C=C/c2ccc(N(CCCC)CCCC)cc2)sc2ccccc21` had an IC50 of 90 nM. In turn, `CN(C)c1ccc(/C=C/c2nc3cc(Cl)ccc3s2)cc1` yielded an IC50 of over 100000 nM.

Take `COc1ccc2c(c1)sc(/N=N/c1ccc(N(C)C)cc1)[n+]2C`: the IC50 was 10 nM.

In turn, `CN(C)c1ccc(/C=C/c2sc3ccccc3[n+]2Cc2ccc(-c3ccccc3)cc2)cc1` had an IC50 of 34 nM. As for `CN(C)c1ccc(/C=C/c2sc3ccc(F)cc3[n+]2Cc2ccccc2)cc1`, the IC50 was 32 nM. Compound `Cc1ccc2sc(/C=C/c3ccc(N(C)C)cc3)[n+](C)c2c1` displayed a concentration for half-maximal inhibition (IC50) of 7.5 nM. Consider `COc1ccc2nc(/N=N/c3ccc(N(C)C)cc3)sc2c1`, for which the IC50 is 700 nM. In the case of `CCCC[n+]1c(/C=C/c2ccc(N(C)C)cc2)sc2ccccc21`, the IC50 is 27 nM. Consider `Nc1ccc(/N=N/c2nc3ccccc3s2)c2ccccc12`, for which the IC50 is 130 nM. As to `CCCCCCC[n+]1c(/C=C/c2ccc(N(CC)CC)cc2)sc2ccccc21`, the IC50 worked out at 120 nM. To `CN(C)c1ccc(/C=C/c2sc3ccccc3[n+]2CCCC(c2ccccc2)c2ccccc2)cc1` belongs 210 nM. Compound `CN(C)c1ccc(/C=C/c2sc3ccccc3[n+]2CCCOCc2ccccc2)cc1` returned an IC50 of 52 nM. `CCCCCCC[n+]1c(/C=C/c2ccc(N(C)C)c3ccccc23)sc2ccccc21` yielded an IC50 of 40 nM.

In turn, `CC[n+]1c(/C=C/c2ccc(N(C)C)cc2)sc2ccccc21` showed an IC50 of 6 nM.

For the compound `COc1ccc2nc(/N=N/c3ccc(N(C)C)c4ccccc34)sc2c1`, the IC50 stood at 340 nM. `CN(C)c1ccc(/C=C/c2sc3ccc(Cc4ccccc4)c(Cc4ccccc4)c3[n+]2C)cc1`: the IC50 was found to be 41 nM. In turn, `Cc1ccc2c(c1)sc(/C=C/c1ccc(N(C)C)cc1)[n+]2C` displayed an IC50 of 6 nM. On to `CCCCCCC[n+]1c(/C=C/c2ccc(N(C)C)cc2)sc2cc(OC)ccc21`, for which the IC50 came out at 40 nM. `CCCCCCC[n+]1c(/C=C/c2ccc(-n3cccc3)cc2)sc2ccccc21` gave an IC50 of 42 nM. `COc1ccc2c(c1)sc(/C=C/c1ccc(N(C)C)c3ccccc13)[n+]2C` had an IC50 of 26 nM.

`CN(C)c1ccc(/C=C/c2sc3ccc(Cl)cc3[n+]2C)cc1` had an IC50 of 5.2 nM.

In the case of `Cc1ccc2c(c1)sc(/C=C/c1ccc(N(C)C)cc1)[n+]2Cc1ccccc1`, the IC50 came to 50 nM.
